Assay results reported in ChEMBL document CHEMBL1144080, “Antihyperglycemic sesquiterpenes from Psacalium decompositum” (1999).

Tests used:
Format in all cases: functional
Mus musculus [1] = assay: Antihyperglycemic activity in C57BL-6J ob/ob mouse type 2 diabetic model assessed as changes in plasma glucose level at 1000 mg/kg, po administered as single dose for 3 hrs
Mus musculus [2] = assay: Antihyperglycemic activity in C57BL-6J ob/ob mouse type 2 diabetic model assessed as food intake per mouse at 1000 mg/kg, po administered as single dose
Mus musculus [3] = assay: Antihyperglycemic activity in C57BL-6J ob/ob mouse type 2 diabetic model assessed as body weight per mouse at 1000 mg/kg, po administered as single dose for 24 hrs
Mus musculus [4] = assay: Antihyperglycemic activity in C57BL-6J ob/ob mouse type 2 diabetic model assessed as changes in plasma glucose level at 1.09 mmol/kg, po administered as single dose for 3 hrs
Mus musculus [5] = assay: Antihyperglycemic activity in C57BL-6J ob/ob mouse type 2 diabetic model assessed as changes in plasma glucose level at 1000 mg/kg, po administered as single dose for 24 hrs
Mus musculus [6] = assay: Antihyperglycemic activity in C57BL-6J ob/ob mouse type 2 diabetic model assessed as body weight per mouse at 1.09 mmol/kg, po administered as single dose for 24 hrs
Mus musculus [7] = assay: Antihyperglycemic activity in C57BL-6J ob/ob mouse type 2 diabetic model assessed as food intake per mouse at 1.09 mmol/kg, po administered as single dose
Mus musculus [8] = assay: Antihyperglycemic activity in C57BL-6J ob/ob mouse type 2 diabetic model assessed as changes in plasma glucose level at 1.09 mmol/kg, po administered as single dose for 24 hrs
Mus musculus [9] = assay: Antihyperglycemic activity in C57BL-6J ob/ob mouse type 2 diabetic model assessed as changes in plasma glucose level at 1.5 mmol/kg, po administered as single dose for 3 hrs
Mus musculus [10] = assay: Antihyperglycemic activity in C57BL-6J ob/ob mouse type 2 diabetic model assessed as changes in plasma glucose level at 1.5 mmol/kg, po administered as single dose for 24 hrs
Mus musculus [11] = assay: Antihyperglycemic activity in C57BL-6J ob/ob mouse type 2 diabetic model assessed as food intake per mouse at 1.5 mmol/kg, po administered as single dose
Mus musculus [12] = assay: Antihyperglycemic activity in C57BL-6J ob/ob mouse type 2 diabetic model assessed as body weight per mouse at 1.5 mmol/kg, po administered as single dose for 24 hrs

## Cc1coc2c1[C@@](C)(O)C1=C(CCC[C@@H]1C)C2=O [EPICACALONE]
Mus musculus [1]
  Activity: -105.1 mg/dL
Mus musculus [2]
  Activity: 4.6 g
Mus musculus [3]
  Activity: 45 g
Mus musculus [4]
  Activity: -42.4 mg/dL
Mus musculus [5]
  Activity: -13.4 mg/dL
Mus musculus [6]
  Activity: 43.3 g
Mus musculus [7]
  Activity: 4 g
Mus musculus [8]
  Activity: 30.9 mg/dL

## Cc1coc2c(O)c3c(c(C)c12)[C@@H](C)CCC3 [CACALOL]
Mus musculus [1]
  Activity: -105.1 mg/dL
Mus musculus [2]
  Activity: 4.6 g
Mus musculus [3]
  Activity: 45 g
Mus musculus [4]
  Activity: -124 mg/dL
Mus musculus [5]
  Activity: -13.4 mg/dL
Mus musculus [6]
  Activity: 43.5 g
Mus musculus [7]
  Activity: 4.1 g
Mus musculus [8]
  Activity: 48.3 mg/dL

## Cc1coc2c1[C@](C)(O)C1=C(CCC[C@@H]1C)C2=O [CACALONE]
Mus musculus [1]
  Activity: -105.1 mg/dL
Mus musculus [2]
  Activity: 4.6 g
Mus musculus [3]
  Activity: 45 g
Mus musculus [4]
  Activity: -3 mg/dL
Mus musculus [5]
  Activity: -13.4 mg/dL
Mus musculus [6]
  Activity: 41.4 g
Mus musculus [7]
  Activity: 4.8 g
Mus musculus [8]
  Activity: 29.5 mg/dL

## CN(C)C(=N)NC(=N)N [METFORMIN]
Mus musculus [9]
  Activity: -151.8 mg/dL
Mus musculus [10]
  Activity: 76.1 mg/dL
Mus musculus [11]
  Activity: 4.5 g
Mus musculus [12]
  Activity: 43.2 g
